Data on eight compounds can be found in paper PMC7127169 (Bioorganic & Medicinal Chemistry, 2012).

“Also recorded” adds a separate entry of the source. Bounds are passed on as bounds.

Test [1] concerns the target T1, SARS-CoV PL^pro (Severe acute respiratory syndrome coronavirus, UniProt P0C6U8). It is filed as biochemical.
In test [2] the target is SARS-CoV PL^pro deubiquitination (DUB) activity (Severe acute respiratory syndrome coronavirus, UniProt P0C6U8). Briefly: biochemical.
In another test the target is HIV-1 protease (Human immunodeficiency virus type 1 group M subtype B, UniProt P04585). The experiment in a line: biochemical.
Another test concerns the target Chymotrypsin (Bos taurus, UniProt P00766). The experiment in a line: biochemical.
The next test deals with T2, Papain (Carica papaya, UniProt P00784).
T2 sequence (P00784 134-345): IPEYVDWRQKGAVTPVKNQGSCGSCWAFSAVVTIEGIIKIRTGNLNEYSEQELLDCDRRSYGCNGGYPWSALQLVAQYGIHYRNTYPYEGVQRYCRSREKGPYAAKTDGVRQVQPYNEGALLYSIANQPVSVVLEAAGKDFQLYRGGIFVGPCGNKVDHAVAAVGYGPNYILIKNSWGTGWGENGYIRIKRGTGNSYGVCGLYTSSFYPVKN
Briefly: biochemical.

Test [3] has as its target T1, SARS-CoV PL^pro. It is filed as biochemical. This is another data set of the same source.
For another test, the target named is SARS-CoV 3CL^pro (Severe acute respiratory syndrome coronavirus, UniProt P0C6U8). It is filed as biochemical. To be noted: at 200 μM.

`Cc1coc2c1C(=O)C(=O)c1c-2ccc2c1CCCC2(C)C` [Compound 1, Tanshinone IIA]: at SARS-CoV PL^pro [1], the k5 was 0.04825 ± 0.006 min⁻¹ and the k6 was found to be 0.008485 ± 0.0001 min⁻¹. The IC50 in test [2] is > 200 µM.
As to `Cc1coc2c1C(=O)C(=O)c1c-2ccc2c1CCCC2(C)CO` (stereo not shown) [Compound 2, Tanshinone IIB], the k5 on SARS-CoV PL^pro [1] turned out to be 0.02503 ± 0.003 min⁻¹. The compound further had a k6 at SARS-CoV PL^pro [1] of 0.004704 ± 0.0002 min⁻¹. Also, the IC50 at HIV-1 protease, on Chymotrypsin and on Papain was > 200 µM in each case.
On SARS-CoV PL^pro [1], `COC(=O)[C@@]1(C)CCCc2c1ccc1c2C(=O)C(=O)c2c(C)coc2-1` [Compound 3, Methyl tanshinonate] showed a k5 of 0.0193 ± 0.001 min⁻¹ and a k6 of 0.002657 ± 0.0002 min⁻¹. In addition, the IC50 in test [2] was > 200 µM. Moreover, the IC50 against Papain was > 200 µM.
As for `C[C@H]1COC2=C1C(=O)C(=O)c1c2ccc2c1CCCC2(C)C` [Compound 4, Cryptotanshinone], on SARS-CoV PL^pro [1], the k5 stood at 0.08127 ± 0.001 min⁻¹, the k6 came to 0.001406 ± 0.0001 min⁻¹ and the “slow-binding inhibition mechanism on PL^pro” value was “slow-binding inhibition kinetics”. In addition, at SARS-CoV PL^pro [3], the “type of inhibition toward PL^pro” value was “Noncompetitive inhibition”.
On SARS-CoV PL^pro [1], `Cc1coc2c1C(=O)C(=O)c1c-2ccc2c(C)cccc12` [Compound 5, Tanshinone I] yielded a k5 of 0.03015 ± 0.003 min⁻¹ and a k6 of 0.003349 ± 0.0003 min⁻¹. For the same compound, on Papain, the IC50 is > 200 µM.
On SARS-CoV PL^pro [1], `Cc1cccc2c3c(ccc12)C1=C(C(=O)C3=O)[C@@H](C)CO1` [Compound 6, Dihydrotanshinone I] returned a k5 of 0.03203 ± 0.001 min⁻¹ and a k6 of 0.003175 ± 0.0003 min⁻¹. Besides, the IC50 at Chymotrypsin is > 200 µM. On Papain, the IC50 was > 200 µM.
With `CC(C)C1=Cc2ccc3c(c2C(=O)C1=O)CCCC3(C)C` [Compound 7, Rosmariquinone], at SARS-CoV PL^pro [1], the k3 stood at 5 ± 0.83 M⁻¹ s⁻¹, the k4 worked out at 0.006483 ± 0.0004 min⁻¹ and the “slow-binding inhibition mechanism on PL^pro” value is recorded as “simple reversible slow-binding inhibition; also recorded: simple slow-binding mode; also recorded: simple reversible slow-binding inhibitor”. Further, the “type of inhibition toward PL^pro” value on SARS-CoV PL^pro [3] was “mixed type inhibition”.
For the compound Salvianolic acid B, at SARS-CoV 3CL^pro, the “inhibition of 3CL^pro” value amounted to 30%.

One may read the IC50 as the concentration at which inhibition is half-maximal. A higher IC50 goes with a need for much substance.
